The source of these data is article PMC3032679 (Journal of Translational Medicine, 2011).

Entries after “also recorded” stand apart in the source; their conditions may differ. Peptide text beside a SMILES is read from it. Bounds are passed on as bounds.

Data set [1] is described as follows: Observation of behavior and appetite after treatment. It counts as in vivo. As to conditions: mice.
Another data set deals with Caki-1 cells. As to conditions: Antp-TPR; renal cancer Caki-1; mean of three independent experiments each in triplicate; 72 h (Figure 2).
The subject of the next data set is MDA-MB-231 cells. In words: Cell viability assay, MDA-MB-231. It counts as cell-based, human. As to conditions: Antp-TPR; breast cancer MDA-MB-231; mean of three independent experiments each in triplicate; 72 h (Figure 2).
The test system of data set [2] is normal human cell lines (HEK293T, MRC5, and PE). Put plainly: Cell viability assay, normal cell lines (panel). As to conditions: identical concentrations, 72 h.
From the text: (§1) The following human tumor and normal cell lines were obtained from the American Type Culture Collection (ATCC): human breast cancer (BT-20, T47D, and MDA-MB-231), lung cancer (A549), kidney cancer (Caki-1), prostate cancer (LNCap), gastric cancer (OE19) and lung fibroblast (MRC5). Human pancreatic cancer cell line (BXPC3) was purchased from the European Collection of Cell Culture (ECACC). Human embryonic kidney cell line (HEK293T) and human normal pancreatic epithelial (PE) cell line ACBRI 515 were purchased from RIKEN cell bank and DS Pharma Biomedical, respectively. Cells were cultured in RPMI-1640 (BT-20, MDA-MB-231, T47D, LNCap, OE19, and BXPC3), MEM (MRC5 and A549), DMEM (HEK293T and Caki-1) or CSC (PE) containing 10% fetal bovine serum (FBS), 100 μg/ml penicillin, and 100 μg/ml streptomycin.
(§2) Cells were seeded on to 96-well plates at 2000-3000 cells/well and incubated with the test peptide. After incubation, an assay for cell viability was carried out using Living Cell Count Reagent SF (Nacalai Tesque) according to the manufacturer's protocol. Absorbance was measured at a wavelength of 450 nm using a 96-well microplate reader (GE Healthcare).
(§3) Data represent the mean ± SD from experiments performed in triplicate.
For a further data set, the system named is PE cells. In words: Cell viability assay, PE. It is filed as cell-based, human. As to conditions: Antp-TPR; normal cells PE; mean of three independent experiments each in triplicate; 72 h (Figure 2).
Another data set relates to HEK293T cells. Put plainly: Cell viability assay, HEK293T. It counts as cell-based, human. As to conditions: Antp-TPR; normal cells HEK293T; mean of three independent experiments each in triplicate; 72 h (Figure 2).
Another data set has as its system A549 cells. Put plainly: Cell viability assay, A549. It is filed as cell-based, human. The note with it: Antp-TPR; lung cancer A549; mean of three independent experiments each in triplicate; 72 h (Figure 2).
Another data set concerns LNcap cells. As to conditions: Antp-TPR; prostate cancer LNcap; mean of three independent experiments each in triplicate; 72 h (Figure 2).
The test system of a further data set is BT20 cells. In words: Cell viability assay, BT20. It counts as cell-based, human. As to conditions: Antp-TPR; breast cancer BT20; mean of three independent experiments each in triplicate; 72 h (Figure 2).
The next data set deals with MRC5 cells. As to conditions: Antp-TPR; normal cells MRC5; mean of three independent experiments each in triplicate; 72 h (Figure 2).
The test system of another data set is liver, kidney, and lung. Put plainly: Histologic examination of organs (H & E). As to conditions: 5 mg/kg i.v., nine times, versus saline. It is filed as in vivo, athymic nude mice. The source says: (A) BXPC3 pancreatic cancer cells were implanted subcutaneously into athymic nude mice. […] Each group had six animals (n = 6), and experiments were repeated twice. Data are expressed as mean ± SD. […] Scale bars, 25 μm. (C) Histologic examination after treatment with Antp-TPR hybrid peptide.

Another data set concerns OE19 cells. The note with it: Antp-TPR; gastric cancer OE19; mean of three independent experiments each in triplicate; 72 h (Figure 2).
In the next data set the test system is BXPC3 cells. In words: Cell viability assay, BXPC3. The note with it: Antp-TPR; pancreatic cancer BXPC3; mean of three independent experiments each in triplicate; 72 h (Figure 2). It counts as cell-based, human.
In data set [3] the test system is normal and cancer cell lines. In words: Cell viability assay, normal and cancer cell lines (panel). It counts as cell-based, human. As to conditions: 72 h.
From the text: as §1, §2, §3
Data set [4] deals with interaction of Hsp90 with the TPR2A domain of Hop. In words: SPR competition: Hsp90 binding to TPR2A domain of Hop. It counts as biochemical, human. The note with it: Hsp90 1 μM over immobilized TPR2A (5000 RU), peptide 1.4, 14, 140, 280, 700 μM and 1 mM. The protocol:
To confirm the presence of purified protein, SDS/PAGE was performed according to the method of Laemmli.
SPR experiments were performed with the Biacore biosensor 3000 system as described previously. Human recombinant Hop, FKBP5, PP5, and purified TPR2A domain of Hop proteins were immobilized on the surface of CM5 sensor chips via N-hydroxysuccinimide and N-ethyl-N'-(dimethylaminopropyl)carbodiimide activation chemistry according to the manufacturer's instructions. Biotin-conjugated TPR peptide (biotin-TPR) was immobilized on the surface of streptavidin (SA) sensor chip. […] HBS-EP buffer (0.01 M Hepes/0.15 M NaCl/0.005% Tween 20/3 mM EDTA, pH 7.4) was used as a running buffer during the assay to inhibit non-specific binding. Data analysis was performed using BIA evaluation version 4.1 software. […] SPR signals obtained in the absence of competing peptides were used as a reference (100% binding) to normalize values obtained in the presence of peptides.
The SPR signal in the absence of competing peptides was used as a reference (100% binding).

From the text for A549 cells: as §1, §2, §3
From the text for BT20 cells: as §1, §2, §3
From the text for BXPC3 cells: as §1, §2, §3
From the text for Caki-1 cells: as §1, §2, §3
From the text for HEK293T cells: as §1, §2, §3
From the text for LNcap cells: as §1, §2, §3
From the text for MDA-MB-231 cells: as §1, §2, §3
From the text for MRC5 cells: as §1, §2, §3
From the text for OE19 cells: as §1, §2, §3
From the text for PE cells: as §1, §2, §3

As for `CC[C@H](C)[C@H](NC(=O)[C@H](CCCNC(=N)N)NC(=O)[C@H](C)NC(=O)[C@H](Cc1ccc(O)cc1)NC(=O)[C@H](C)NC(=O)[C@H](CCCCN)NC(=O)[C@H](CCCCN)NC(=O)[C@H](CCCCN)NC(=O)[C@H](Cc1c[nH]c2ccccc12)NC(=O)[C@H](CCCCN)NC(=O)[C@H](CCSC)NC(=O)[C@H](CCCNC(=N)N)NC(=O)[C@H](CCCNC(=N)N)NC(=O)[C@H](CC(N)=O)NC(=O)[C@H](CCC(N)=O)NC(=O)[C@H](Cc1ccccc1)NC(=O)[C@H](Cc1c[nH]c2ccccc12)NC(=O)[C@@H](NC(=O)[C@H](CCCCN)NC(=O)[C@@H](NC(=O)[C@H](CCC(N)=O)NC(=O)[C@@H](N)CCCNC(=N)N)[C@@H](C)CC)[C@@H](C)CC)C(=O)NCC(=O)N[C@@H](CC(N)=O)C(=O)N[C@@H](CO)C(=O)N[C@@H](Cc1ccc(O)cc1)C(=O)N[C@@H](Cc1ccccc1)C(=O)N[C@@H](CCCCN)C(=O)O` [Antp-TPR] (H-RQIKIWFQNRRMKWKKKAYARIGNSYFK-OH), the “abnormal behaviors or losing of appetite” value in data set [1] is listed as “any abnormal behaviors or losing of appetite after the treatment with this peptide was not also observed”. Also, the IC50 (as a rule, the midpoint of a concentration-inhibition curve) in the data set on Caki-1 cells was 47.9 µM; in the data set on MDA-MB-231 cells, 56.9 µM; with PE cells it was greater than 100 µM; in the data set with HEK293T cells, greater than 100 µM; with A549 cells, 65.9 µM; in the data set on LNcap cells, 56.7 µM. The IC50 was 37.4 µM with BT20 cells, greater than 100 µM in the data set on MRC5 cells, 33.4 µM in the data set with OE19 cells and 44.8 µM in the data set on BXPC3 cells. Further, in data set [2], the “effect on viability of normal cells” value is “did not apparently reduce the viability; also recorded: less cytotoxic to normal cells”. The “histologic examination of liver, kidney, and lung” value with liver, kidney, and lung was “equally unremarkable in the saline or hybrid peptide-treated mice; also recorded: did not cause serious damages to the main organs (liver, kidney, and lung) and normal tissues”.

Turning to `CC[C@H](C)[C@H](NC(=O)[C@H](CCCNC(=N)N)NC(=O)[C@H](C)NC(=O)[C@H](Cc1ccc(O)cc1)NC(=O)[C@H](C)NC(=O)[C@@H](N)CCCCN)C(=O)NCC(=O)N[C@@H](CC(N)=O)C(=O)N[C@@H](CO)C(=O)N[C@@H](Cc1ccc(O)cc1)C(=O)N[C@@H](Cc1ccccc1)C(=O)N[C@@H](CCCCN)C(=O)O` [TPR], the “effect on viability / cytotoxicity” value in data set [3] is “no effect on normal or cancer cells; also recorded: no cytotoxicity”.

In the case of KAYAAAGNSYFK [TPR mutant 1], the “competition for interaction of Hsp90 with TPR2A domain of Hop” value (shortened to “competition for interaction of Hsp90”) in data set [4] is given as “did not demonstrate any protein interaction when analyzed at up to millimolar concentrations”.

Regarding “KAYARIGNSGGG [TPR mutant 2, TPR with last three amino acids, Tyr-Phe-Lys, replaced with three Gly residues]”, the “competition for interaction of Hsp90” value in data set [4] is recorded as “did not demonstrate any protein interaction when analyzed at up to millimolar concentrations”.

As for “RKFSAAIGYNKY [TPR scramble, scramble peptide of TPR]”, the “competition for interaction of Hsp90” value in data set [4] is given as “did not demonstrate any protein interaction when analyzed at up to millimolar concentrations”.

For the molecule “RQIKIWFQNRRMKWKKKAYAAAGNSYFK [Antp-TPR mutant 1]”, the selective antitumor activity result in data set [3] was “did not show selective antitumor activities”.

Take “RQIKIWFQNRRMKWKKKAYARIGNSGGG [Antp-TPR mutant 2]”: the selective antitumor activity entry in data set [3] was “did not show selective antitumor activities”.

In the case of “RQIKIWFQNRRMKWKKRKFSAAIGYNKY [Antp-scramble, scramble peptide fused to Antennapedia helix III]”, in data set [3], the “effect on viability / cytotoxicity” value is reported as “no effect on these cell lines”.
